Data as given in US20090247495A1, “CU[…] AND USES THEREOF” (priority 2007, published 2009).
Converted amounts (≈) assume the structure as drawn.

Experiments:
[1] = tested on: Human cancer cell lines from the 59-NCI Cancer Cell Line Panel; format: cell-based
hsp27 = experiment: Western blot of hsp27 in HepG2, HT29 and MCF-7 cells; format: cell-based, human
Experimental: (§1) The human cancer cells line were serum starved for 18 hours prior to CuB/CuD treatment. Cells were incubated in a 6-well plate filled with 5 ml growth medium (RPMI with 0.2% FBS and 1% PS) at the cell density of 1×10^5 cells/ml, in the presence or absence of two different dosages of CuB/CuD for various time intervals. The drug treatment was terminated by centrifugation at 1,500 rpm for 5 minutes and the cells were rinsed twice with phosphate-buffered saline and lysed at 4° C. in a lysis buffer containing 50 mM Tris-HCl, pH7.5, 100 mM NaCl, 5 mM EDTA, 40 mM NaP2O7, 1% Triton X-100, 1 mM dithiothreitol, 200 μM Na3VO4, 100 uM phenylmethysufonyl fluoride, 2 μg/ml leupeptin, 4 μg/ml aprotinin and 0.7 μg/ml pepstatin. The insoluble protein lysate were removed by centrifugation for 10 minutes at 13,000 rpm. Fifteen micrograms of protein lysate was resolved using 10% SDS-polyacryamide gel electrophoresis (PAGE) and then subjected to western blot anaylsis. Western blots were performed with anti-Stat3, anti-Erk1/2 and anti-hsp27 antibodies specific for phosphor- and total Stat3, Erk and hsp27 proteins. The protein bands were then visualized with the Enhanced Chemiluminescence Plus (ECL Plus) detection system (Amersham). • 6.2.8.1 Inhibition Effect Cucurbitacin B/Cucurbitacin D on Stat3 Activation in HepG2 and HT29 Cells
(§2) Cells were incubated either with CuB or CuD (25 ug/ml or the dosage of IC50) for various time intervals (5, 10 or 30 mins, 1 or 4 hours). The Stat3 activation was detected by western blot.

[2] = tested on: Human cancer cell lines from the 59-NCI Cancer Cell Line Panel; experiment: Apoptosis (Annexin V-FITC / PI) by flow cytometry, 18 selected NCI panel cell lines; format: cell-based; settings: 48 hours; GI50, ½ GI50 and ¼ GI50
Experimental: Apoptosis is the important mechanism for cell death in normal cells. In cancer cells, this mechanism fails and cells proliferate without control. Human cancer cell lines from the 59-NCI Cancer Cell Line Panel including leukemia, melanoma and cancers of breast, brain, colon, lung, ovary, prostate and kidney were purchased from the National Institute of Cancer. […] They were treated with cucurbitacin B and cucurbitacin D at three different concentrations to elucidate their ability to induce any changes in cell cycle.
Cancer cell lines were maintained in RPMI 1640 supplemented with 5% Fetal Bovine Serum, 2 mM L-glutamine and 1% Penicillin/Streptomycin at 37° C. with 5% CO2. Cells were inoculated into tissue culture flask at cell concentrations from 50000 to 400,000 cells/ml according to the NCI guideline. The cells were incubated at 37° C. with 5% CO2 for 24 hours. Cucurbitacin B and cucurbitacin D were added to the cells of final concentrations ranging from 6 to 350 nM (GI50, ½ GI50 and ¼ GI50 of particular cell line) for 48 hours at 37° C. with 5% CO2. Cells (3×10^5) were then harvested and stained with 5 μl Annexin V-FITC and 10 μl propidium iodine (Becton Dickinson, CA, USA) for 15 minutes at room temperature. Ten thousands events were collected by the FACScaliber and the percentage of different cell populations were analyzed by the CellQuest™ software (Becton Dickinson).

melanoma = experiment: SRB growth inhibition, melanoma lines of the NCI panel; format: cell-based, human; settings: 48 hours
Excerpt: Human cancer cell lines from the 59-NCI Cancer Cell Line Panel including leukemia, melanoma and cancers of breast, brain, colon, lung, ovary, prostate and kidney, were purchased from the National Institute of Cancer (USA). The growth inhibition (GI50) of these cell lines treated with cucurbitacin B and cucurbitacin D in various concentrations was investigated.
59 human cancer cell lines were maintained in RPMI 1640 (Invitrogen Life Technologies, CA, USA) supplemented with 5% Fetal Bovine Serum, 2 mM L-glutamine and 1% Penicillin/Streptomycin (Invitrogen Life Technologies) at 37° C. with 5% CO2. All chemicals were purchased from Sigma (St. Louis, Mo., USA) unless specified otherwise.
Sulforhodamine B (SRB) assay was applied to determine the cytostatic effect of cucurbitacin B and cucurbitacin D. SRB is a dye that binds to cellular proteins and will be dissolved in base. The biomass of total protein can be measured at 520 nm using a plate reader.
Cells were inoculated into 96-well microtiter plates including “Time zero” (Tz) plates in 100 μl at cell concentrations from 5000 to 40,000 cells per well according to NCI guideline. The cells were incubated at 37° C. with 5% CO2 for 24 hours. […] Bound SRB was solubilized with 100-200 ul per well of 10 mM trizma base and absorbance was measured at a wavelength of 520 nm. The percentage of growth inhibition was calculated as follows: […]

PARP = experiment: Western blot of PARP cleavage in HL60 cells; format: cell-based, human
Experimental: (§3) Control cells, as well as cells treated with cucurbitacin B or cucurbitacin D, were harvested and collected by centrifugation. Whole cell extracts were then prepared by lysing the cells using 4% sodium dodecyl sulfate (SDS) gel sample buffer. Cell extracts were boiled for 10 min and chilled on ice, subjected to 12% SDS-polyacrylamide gel electrophoresis, and transferred to a PVDF membrane. Each membrane was cut into to two pieces with one piece incubated at 4° C. overnight with antibodies against cell cycle signaling proteins, such as ERK, phosphorlated-ERK, p38, phosphorlated-p38, Cyclin E, Retinoblastoma, phosphalated-Retinoblastoma and c-myc, and apoptotic protein (PARP). β-actin was used as a control for protein loading. All antibodies were obtained from Cell signaling Technologies (USA). Then membranes were incubated at 37° C. for 1 h with secondary antibody conjugated with peroxidase, and the signal was detected using chemiluminescence detection reagent. The relative protein level was calculated as the ratio of the optical density of the protein of interest to that of β-actin.

Stat3 = experiment: Western blot of Stat3 activation in HepG2, HT29 and MCF-7 cells; format: cell-based, human
[3] = tested on: colon cancer cell line (HT29); experiment: MTT cell cytotoxicity assay, HT29; format: cell-based, human; settings: 48 hours
Experimental: (§4) Three human cancer cell lines (HepG2(liver), HT29(colon) and MCF-7(breast)) were purchased from American Type Culture Collection (ATCC, Manassas, Va., USA). The cells were cultured in RPMI 1640 medium supplemented with 5% (v/v) fetal bovine serum (FBS) and 100 units/ml penicillin and streptomycin (Invitrogen Life Technologies) in a humidified 5% CO2 atmosphere at 37° C.
The cytotoxic effect of CuB and CuD on these three cancer cell lines were determined using MTT (3-[4,5-dimethylthiazol-2-yl]-2,5-diphenyl tetrazolium bromide) labeled cell cytotoxicity assay. A total of 1×10^4 cells were seeded into a 96-well plate for 24 hours prior to cucurbitacin B (CuB) or cucurbitacin D (CuD) treatment. They were then treated with different dosages of CuB/CuD for 48 hours. After the treatment, 20 μl of MTT (5 mg/ml) was added to each well and incubated for 4 hrs. Then the medium was discarded and 100 μl of dimethyl sulfoxide was added. The absorbance at 570 nm was then measured by using FLUOstar OPTIMA equipment (BMG, LABTECH GmbH, Germany). The percentage of inhibition against different dosages of CuB/CuD were plotted using the Prism software and the 50% inhibition concentration (IC50) were obtained.

Erk1/2 = experiment: Western blot of Erk1/2 in HepG2, HT29 and MCF-7 cells; format: cell-based, human
Experimental: as §1, §2

MAPK signaling pathway = experiment: Western blot of MAPK / cell cycle signaling proteins in HL60 cells; format: cell-based, human
Experimental: as §3

[4] = tested on: Human liver cancer cell lines HepG2; experiment: MTT cytotoxicity assay, matrix combination of CuB and Sb on liver cancer cells; format: cell-based; settings: HepG2, 2 days, CuB 0 μM
Experimental: as §4, with “Human liver” for “Three human”, “HepG2 was” for “(HepG2(liver), HT29(colon) and MCF-7(breast)) were”
A total of 1×10^4 cells were seeded into a 96-well plate for 24 hours prior to drug treatment. They were then treated with different dosages (a multiple of 20-fold of IC50 values) of CuB or Sb for 48 hours. After the treatment, 20 μl of MTT (5 mg/ml) was added to each well and incubated for 4 hrs. Then the medium was discarded and 100 μl of dimethyl sulfoxide was added. The absorbance at 570 nm was then measured by using FLUOstar OPTIMA equipment (BMG, LABTECH GmbH, Germany). The percentage of inhibition against different dosages of CuB or Sb were plotted using the Prism software and the 50% inhibition concentration (IC50) were obtained.
The cells were then treated for 2 days and the % inhibition of growth is determined.
The excess over Bliss additivism may be calculated using the following formula and shown in Table 4: • Bliss Additivism: Combined response=CuB+Sb−(CuB)(Sb) where each effect is expressed as fractional inhibition between 0 and 1 • Excess over additivism=observed response−combined response

**Q.** CC(C)(O)/C=C/C(=O)[C@](C)(O)[C@H]1[C@H](O)C[C@@]2(C)[C@@H]3CC=C4[C@@H](C[C@H](O)C(=O)C4(C)C)[C@]3(C)C(=O)C[C@]12C [cucurbitacin D] was tested. Which “cell lines with G2/M arrest” value [1] did it give?
**A.** 9 out of 18

**Q.** What about the cell cycle effect ([1]; SF-295, 48 hours) of the same molecule?
**A.** G2/M arrest and endoreduplication

**Q.** What about the Hsp27 activation (hsp27; HT29, 10 minutes) of the same molecule?
**A.** significant up-regulation

**Q.** What about the Hsp27 activation (hsp27; HepG2, 30 minutes) of the same molecule?
**A.** significant up-regulation

**Q.** And the Hsp27 activation (hsp27; MCF-7, 4 hours)?
**A.** significant up-regulation

**Q.** And the “cell lines in which apoptosis was induced” value [2]?
**A.** 11 out of 18

**Q.** And the GI50 (melanoma)?
**A.** 0.06 µM

**Q.** What about the “apoptosis marker PARP” value (PARP) of the same molecule?
**A.** cleavage of PARP

**Q.** And the Stat3 activation (Stat3; HepG2 cells and HT29 cells, 25 ug/ml, 30 minutes)?
**A.** inhibited significantly

**Q.** And the Stat3 activation (Stat3; MCF-7 cells)?
**A.** no significant change

**Q.** What about the IC50 [3] of the same molecule?
**A.** 0.27 µg/mL (≈ 0.523 µM)

**Q.** What about the “expression of Erk1/2” value (Erk1/2; HT29, 5 minutes of treatment) of the same molecule?
**A.** up-regulated the expression of Erk1/2 significantly

**Q.** And the “expression of Erk1/2” value (Erk1/2; HepG2, 30 minutes of treatment)?
**A.** up-regulated the expression of Erk1/2 significantly

**Q.** And the Erk activation (Erk1/2; MCF-7 cells, 5 minutes)?
**A.** significant Erk activation

**Q.** What about the “regulation of ERK, cyclin E, retinoblastoma phosphorylation and c-myc” value (MAPK signaling pathway) of the same molecule?
**A.** ERK activation, followed by cyclin E down-regulation, inhibition of retinoblastoma's phosphorylation, and ultimately down-regulation of c-myc

**Q.** With CNC(=O)c1cc(Oc2ccc(NC(=O)Nc3ccc(Cl)c(C(F)(F)F)c3)cc2)ccn1 [sorafenib, reference compound] as the molecule, how does the “% inhibition” value ([4]; Sb 0.1 μM) read?
**A.** 4.61%

**Q.** And the “Excess over Highest Single Agent Model” value ([4]; Sb 0.1 μM)?
**A.** 0

**Q.** What about the “% inhibition” value ([4]; Sb 0.3 μM) of the same molecule?
**A.** 27.69%

**Q.** And the “Excess over Highest Single Agent Model” value ([4]; Sb 0.3 μM)?
**A.** 0

**Q.** What about the “% inhibition” value ([4]; Sb 0.9 μM) of the same molecule?
**A.** 39.10%

**Q.** What about the “Excess over Highest Single Agent Model” value ([4]; Sb 0.9 μM) of the same molecule?
**A.** 0

**Q.** And the “% inhibition” value ([4]; Sb 2.7 μM)?
**A.** 35.35%

**Q.** And the “Excess over Highest Single Agent Model” value ([4]; Sb 2.7 μM)?
**A.** 0

**Q.** What about the “% inhibition” value ([4]; Sb 8.4 μM) of the same molecule?
**A.** 82.28%

**Q.** What about the “Excess over Highest Single Agent Model” value ([4]; Sb 8.4 μM) of the same molecule?
**A.** 0
